The text below walks through data of PubChem BioAssay (NCI).

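48-hour exposure; five concentrations; linearly interpolated endpoints. The concentration for 50% growth inhibition is given as GI50. TGI: concentration producing complete growth inhibition.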

Holding throughout (experiment): NCI tumour cell line growth inhibition, 48 h
Assay [1] concerns SK-MEL-5 melanoma.
For assay [2], the system named is RPMI-8226 leukemia.
Assay [3] relates to SF-295 CNS.
Assay [4] deals with TK-10 renal.
The test system of assay [5] is SNB-75 CNS.
Assay [6] deals with CAKI-1 renal.
In assay [7] the test system is UACC-62 melanoma.
Assay [8] has as its system SN12C renal.
Assay [9] concerns T-47D breast.
For assay [10], the system named is A549 NSCLC.

Take `COc1cccc(/C=C/C(=O)c2cccc(Nc3nc(Nc4ccccc4)nc(Nc4ccccc4)n3)c2)c1`: the GI50 in assay [1] was 13 µM; in assay [2] it was 1780 nM; in assay [3] it was 1.96 µM; in assay [4] it was 41.5 µM; in assay [5] it was 11.8 µM; in assay [6] it was above 22.4 µM. In addition, the GI50 was above 100 µM in [7], 48.5 µM in assay [8], 6.15 µM in [9] and 30.9 µM in assay [10]. For the same compound, the TGI was above 77.1 µM in [1]; 6.49 µM in assay [2]; above 93.1 µM in [4]; above 94.8 µM in assay [5]; above 60.8 µM in assay [6]; above 100 µM in [7]. Besides, the values for the TGI in assay [8], in [9] and in assay [10] were above 100 µM, above 79.8 µM and above 100 µM, respectively.
In the case of `O=C(Cn1ccc(=O)[nH]c1=O)Nc1ccc(C(=O)O)c(O)c1`, the TGI in assay [1], in assay [2], in assay [3], in [4], in [5] and in assay [6] was above 100 µM throughout. Moreover, the TGI in assay [7], in [8], in [9] and in assay [10] was above 100 µM throughout.
For `COc1c2c(c3c(c1CCC(=O)O)OC(C)(C)C=C3)OC(C)(C)C=C2`, the TGI in assay [1], in assay [2], in assay [3], in assay [4], in assay [5] and in [6] was above 100 µM in each case. The TGI in [7], in assay [8], in assay [9] and in assay [10] was above 100 µM each time.
With `Cc1sc(C(=O)Nc2cc(C(=O)NCCCN(C)C)n(C)c2)cc1NC(=O)CCCN1C(=O)c2cccc3cccc(c23)C1=O`, the GI50 is 38.2 µM in assay [1]; above 100000 nM in assay [2]; above 100 µM in [3]; above 100 µM in [4]; above 100 µM in assay [5]; above 100 µM in assay [6]. For the same compound, the GI50 in [7], in assay [8], in assay [9] and in [10] was above 100 µM each time. Further, the TGI in assay [1], in [2], in assay [3], in [4], in assay [5] and in assay [6] was above 100 µM in each case. The TGI in assay [7], in [8], in [9] and in assay [10] was above 100 µM each time.
In the case of `O=C(CC(=O)CC(O)(C(F)(F)F)C(F)(F)F)CC(O)(C(F)(F)F)C(F)(F)F`, the TGI in assay [1], in assay [2], in [3], in [4], in assay [5] and in [6] was above 10 µM in each case. Moreover, the TGI in assay [7], in assay [8], in assay [9] and in [10] was above 10 µM each time.
Take `CCN(CC)CCn1ccc(=O)c2cc3c(=O)ccn(CCN(CC)CC)c3c(C)c21`: the TGI in assay [1] was determined as 29.1 µM; in assay [2] it was 6.8 µM; in assay [3] it was 17.2 µM; in assay [4], 26.7 µM; in assay [5], 22.7 µM; in [6], 18.3 µM. Moreover, the TGI in [7] was found to be 29.2 µM; in assay [8], 21.3 µM; in [9], 50 µM; in [10] it was 14.1 µM.
As for `O=C1OC(=O)C(c2c[nH]c3ccccc23)=C1c1c[nH]c2ccccc12`, the GI50 in [1] is above 25 µM; in [2], above 25000 nM; in assay [3] it was above 25 µM; in assay [4], above 25 µM; in [5] it was above 25 µM; in assay [6], above 25 µM. Further, the GI50 in [7], in assay [8], in [9] and in assay [10] was above 25 µM each time. Also, the TGI in assay [1], in [2], in assay [3], in assay [4], in assay [5] and in [6] was above 25 µM throughout. Further, the TGI in [7], in assay [8], in [9] and in assay [10] was above 25 µM each time.
Regarding `C[C@@H](C(=O)Nc1ccc(Cl)cc1)C1CCC(c2ccnc3ccc(F)cc23)CC1` (some centres undefined), the GI50 in [1] is 3.22 µM; in assay [2] it was 2850 nM; in [3] it was 8.12 µM; in assay [4] it was 6.04 µM; in assay [5], 12.5 µM; in assay [6], 6.23 µM. Besides, the GI50 in [7] was 10.3 µM; in assay [8], 8.23 µM; in [9], 3.36 µM; in [10], 9.9 µM. Moreover, the TGI in assay [1] was 11.8 µM; in [2], 13.9 µM; in assay [3], above 100 µM; in assay [4] it was 81.3 µM; in assay [5], 92.3 µM; in assay [6], above 100 µM. In addition, the TGI was 47.2 µM in assay [7], 44.4 µM in assay [8], 46.1 µM in assay [9] and above 100 µM in assay [10].
Turning to `CCCCCn1c(=N)n(CC(O)COc2cccc(C)c2)c2ccccc21` (centres undefined), the GI50 was 2.75 µM in assay [1]; 2090 nM in assay [2]; 5.62 µM in assay [3]; 10.2 µM in assay [4]; 2.65 µM in assay [5]; 6.95 µM in assay [6]. Moreover, the GI50 was 4.85 µM in assay [7], 5.41 µM in assay [8], 3.33 µM in [9] and 10.2 µM in assay [10]. Further, the TGI amounted to 7.82 µM in assay [1]; 5.2 µM in assay [2]; 22.8 µM in [3]; 22.4 µM in assay [4]; 16.5 µM in assay [5]; 21.2 µM in [6]. Besides, the TGI in assay [7] was found to be 18.5 µM; in assay [8] it was 19 µM; in assay [9], 10.6 µM; in assay [10] it was 22.9 µM.
As to `COc1cc(C2c3cc4c(cc3OC(N3CCCC3)C2C)OCO4)cc(OC)c1OC` (centres undefined), the TGI in assay [1] was 5.06 µM; in assay [2], above 19.9 µM; in assay [3], 2.55 µM; in assay [4], 30.2 µM; in assay [5], 9.4 µM; in assay [6] it was 12 µM. The TGI is 20.7 µM in assay [7], 28 µM in [8], above 100 µM in assay [9] and 50.4 µM in assay [10].
